Source: ChEMBL document CHEMBL1201862, “PubChem BioAssay data set” (2004)
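In this assay, cells in 96-well plates receive the compound at five concentrations for 48 hours. Endpoints are linearly interpolated between the surrounding concentrations. GI50 = concentration required for 50% inhibition of growth.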 The source made the active and inactive calls. No stated cut-off is given here; in the data, active = GI50 up to about 1.1 µM and inactive = higher.

Columns and labels:
Test in all cases: DTP human tumour cell line panel, 48 h
OVCAR-3 = tested on: OVCAR-3
CCRF-CEM = tested on: CCRF-CEM
MCF7 = tested on: MCF7
KM12 = tested on: KM12
BT-549 = tested on: BT-549
SK-MEL-28 = tested on: SK-MEL-28
SNB-75 = tested on: SNB-75
OVCAR-8 = tested on: OVCAR-8
SNB-19 = tested on: SNB-19
786-0 = tested on: 786-0
A549 = tested on: A549
LOX IMVI = tested on: LOX IMVI
U-251 = tested on: U-251
HOP-92 = tested on: HOP-92
M14 = tested on: M14
COLO 205 = tested on: COLO 205
NCI-H226 = tested on: NCI-H226
CAKI-1 = tested on: CAKI-1
NCI/ADR-RES = tested on: NCI/ADR-RES
NCI-H522 = tested on: NCI-H522

SMILES	GI50 (OVCAR-3)	GI50 (CCRF-CEM)	GI50 (MCF7)	GI50 (KM12)	GI50 (BT-549)	GI50 (SK-MEL-28)	GI50 (SNB-75)	GI50 (OVCAR-8)	GI50 (SNB-19)	GI50 (786-0)	GI50 (A549)	GI50 (LOX IMVI)	GI50 (U-251)	GI50 (HOP-92)	GI50 (M14)	GI50 (COLO 205)	GI50 (NCI-H226)	GI50 (CAKI-1)	GI50 (NCI/ADR-RES)	GI50 (NCI-H522)
O=C(O)c1ccccc1/C=N\N(CCO)C1=NCCN1	> 100 µM (inactive)	> 100 µM (inactive)	> 100 µM (inactive)	> 100 µM (inactive)	> 100 µM (inactive)	> 100 µM (inactive)	93.1 µM (inactive)	> 100 µM (inactive)	> 100 µM (inactive)	> 100 µM (inactive)	> 100 µM (inactive)	> 100 µM (inactive)	> 100 µM (inactive)	> 100 µM (inactive)	> 100 µM (inactive)	> 100 µM (inactive)	> 100 µM (inactive)	–	–	–
Cc1cc2c(c(C(=O)NCC(=O)N[C@@H](C)C(=O)OCc3ccccc3)c1)Oc1c(cc(C)cc1C(=O)NCC(=O)N[C@@H](C)C(=O)OCc1ccccc1)S2	22 µM (inactive)	> 100 µM (inactive)	> 100 µM (inactive)	> 100 µM (inactive)	> 100 µM (inactive)	–	15.8 µM (inactive)	> 100 µM (inactive)	> 100 µM (inactive)	> 100 µM (inactive)	> 100 µM (inactive)	–	> 100 µM (inactive)	–	> 100 µM (inactive)	> 100 µM (inactive)	> 100 µM (inactive)	> 100 µM (inactive)	> 100 µM (inactive)	–
CN(C)CCN(C)P12(Oc3ccccc3O1)Oc1c(Cl)c(Cl)c(Cl)c(Cl)c1O2	27.9 µM (inactive)	29 µM (inactive)	33.7 µM (inactive)	–	56.4 µM (inactive)	> 100 µM (inactive)	13.7 µM (inactive)	40.7 µM (inactive)	56.6 µM (inactive)	54.6 µM (inactive)	46.9 µM (inactive)	63 µM (inactive)	56.5 µM (inactive)	22.1 µM (inactive)	50.5 µM (inactive)	> 100 µM (inactive)	> 100 µM (inactive)	–	35.8 µM (inactive)	–
CCCCOCCOCCOC1=C(Cl)C(=O)c2c(O)ccc(O)c2C1=O	0.877 µM (active)	< 0.01 µM (active)	0.218 µM (active)	1.79 µM (inactive)	1.39 µM (inactive)	0.357 µM (active)	0.382 µM (active)	1.37 µM (inactive)	1.77 µM (inactive)	1.79 µM (inactive)	1.85 µM (inactive)	0.512 µM (active)	1.67 µM (inactive)	0.199 µM (active)	0.161 µM (active)	0.259 µM (active)	1.79 µM (inactive)	0.209 µM (active)	1.97 µM (inactive)	–
COc1ccc2c(c1)C/C(=C\c1ccc(O)c(OC)c1)C2=O	> 100 µM (inactive)	–	> 100 µM (inactive)	–	> 100 µM (inactive)	> 100 µM (inactive)	46 µM (inactive)	> 100 µM (inactive)	> 100 µM (inactive)	> 100 µM (inactive)	> 100 µM (inactive)	> 100 µM (inactive)	> 100 µM (inactive)	–	> 100 µM (inactive)	–	> 100 µM (inactive)	> 100 µM (inactive)	> 100 µM (inactive)	–
O=[N+]([O-])C(C=C(n1nnc2ccccc21)n1nnc2ccccc21)=C(n1nnc2ccccc21)n1nnc2ccccc21	> 100 µM (inactive)	25 µM (inactive)	> 100 µM (inactive)	> 100 µM (inactive)	> 100 µM (inactive)	–	–	> 100 µM (inactive)	0.975 µM (active)	> 100 µM (inactive)	> 100 µM (inactive)	> 100 µM (inactive)	> 100 µM (inactive)	84.1 µM (inactive)	> 100 µM (inactive)	> 100 µM (inactive)	> 100 µM (inactive)	> 100 µM (inactive)	> 100 µM (inactive)	–
COc1cc2c(cc1C)NC(=O)/C2=C/c1c(Cl)n(C)c2ccccc12	4.11 µM (inactive)	1.9 µM (inactive)	3.45 µM (inactive)	3.34 µM (inactive)	4.57 µM (inactive)	13 µM (inactive)	3.34 µM (inactive)	12.5 µM (inactive)	12.8 µM (inactive)	12.7 µM (inactive)	10.2 µM (inactive)	7.69 µM (inactive)	10 µM (inactive)	–	10.6 µM (inactive)	5.11 µM (inactive)	4.53 µM (inactive)	5.06 µM (inactive)	3.61 µM (inactive)	–
COc1ccc(O)c(/C(C)=N/NC(=S)N(C)C)c1	37.3 µM (inactive)	8.93 µM (inactive)	–	42 µM (inactive)	36 µM (inactive)	35.7 µM (inactive)	75.5 µM (inactive)	33.4 µM (inactive)	40.5 µM (inactive)	> 40.7 µM (inactive)	23.4 µM (inactive)	4.48 µM (inactive)	> 36.6 µM (inactive)	> 100 µM (inactive)	11.8 µM (inactive)	21.3 µM (inactive)	16.1 µM (inactive)	16.7 µM (inactive)	18 µM (inactive)	1.33 µM (inactive)
COC(=O)C[C@](O)(CCCC(C)(C)O)C(=O)O[C@@H]1C(OC)=C[C@]23CCCN2CCc2cc4c(cc2[C@H]13)OCO4 [OMACETAXINE MEPESUCCINATE]	–	0.0215 µM (active)	0.015 µM (active)	0.142 µM (active)	3.6 µM (inactive)	0.111 µM (active)	0.102 µM (active)	0.146 µM (active)	0.0706 µM (active)	0.893 µM (active)	–	0.0444 µM (active)	0.0571 µM (active)	0.0869 µM (active)	1.21 µM (inactive)	0.218 µM (active)	0.09 µM (active)	0.203 µM (active)	3.87 µM (inactive)	–
[N-]=[N+]=NC1(c2ccccc2)C(=O)Nc2ccccc2C1=O (centres undefined)	35 µM (inactive)	27.3 µM (inactive)	35 µM (inactive)	30.1 µM (inactive)	13.8 µM (inactive)	56.2 µM (inactive)	60.3 µM (inactive)	–	38 µM (inactive)	68.2 µM (inactive)	76.4 µM (inactive)	37.5 µM (inactive)	41.2 µM (inactive)	26.1 µM (inactive)	20.4 µM (inactive)	71.4 µM (inactive)	–	32.2 µM (inactive)	51.2 µM (inactive)	–
NC1CC(=O)c2sc(I)cc21 (centres undefined)	> 100 µM (inactive)	37.4 µM (inactive)	> 100 µM (inactive)	> 100 µM (inactive)	> 100 µM (inactive)	> 100 µM (inactive)	> 100 µM (inactive)	> 100 µM (inactive)	> 100 µM (inactive)	> 100 µM (inactive)	> 100 µM (inactive)	–	> 100 µM (inactive)	–	> 100 µM (inactive)	> 100 µM (inactive)	–	40.3 µM (inactive)	> 100 µM (inactive)	–
Cc1cc(C)nc(NC(=S)Nc2ccc([N+](=O)[O-])cc2)c1	–	> 100 µM (inactive)	> 100 µM (inactive)	> 100 µM (inactive)	> 100 µM (inactive)	> 100 µM (inactive)	> 100 µM (inactive)	> 100 µM (inactive)	> 100 µM (inactive)	> 100 µM (inactive)	–	> 100 µM (inactive)	> 100 µM (inactive)	> 100 µM (inactive)	–	> 100 µM (inactive)	> 100 µM (inactive)	> 100 µM (inactive)	> 100 µM (inactive)	–
